Key:
Format in all cases: in vivo
[1] = test system: Foxtail, Giant (giant foxtail, Setaria faberi); assay: Test A preemergence, Foxtail, Giant; conditions: Preemergence; for Plant response rating, Foxtail, Giant: 0 to 100 scale (0 no effect, 100 complete control)
Procedure, shortened: (§1)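 Whole-plant herbicidal screen in pots of loam blended with sand. Sprays used a surfactant-containing, non-phytotoxic solvent vehicle. Timing was preemergence soil-directed at planting or postemergence at the one- to two-leaf stage (2–10 cm).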

[2] = test system: kochia (Bassia scoparia); assay: Test A postemergence, kochia; conditions: Postemergence, 0 to 100 scale (0 no effect, 100 complete control); for Plant response rating, Kochia: 125 g ai/ha; for Kochia plant response rating: 500 g ai/ha, visual injury vs untreated controls after approx. 10 days
Procedure, shortened: as §1

[3] = test system: corn (Zea mays); assay: Test A postemergence, corn; conditions: Postemergence, 0 to 100 scale (0 no effect, 100 complete control); for Plant response rating, Corn: 125 g ai/ha; for Corn plant response rating: 500 g ai/ha, visual injury vs untreated controls after approx. 10 days
Procedure, shortened: as §1

[4] = test system: ragweed (common ragweed, Ambrosia artemisiifolia); assay: Test A preemergence, ragweed; conditions: Preemergence; for Plant response rating, Ragweed: 0 to 100 scale (0 no effect, 100 complete control)
Procedure, shortened: as §1

[5] = test system: ragweed (common ragweed, Ambrosia artemisiifolia); assay: Test A postemergence, ragweed; conditions: Postemergence, 0 to 100 scale (0 no effect, 100 complete control); for Plant response rating, Ragweed: 125 g ai/ha; for Ragweed plant response rating: 500 g ai/ha, visual injury vs untreated controls after approx. 10 days
Procedure, shortened: as §1

[6] = test system: barnyardgrass (Echinochloa crus-galli); assay: Test A preemergence, barnyardgrass; conditions: Preemergence, 0 to 100 scale (0 no effect, 100 complete control)
Procedure, shortened: as §1

[7] = test system: pigweed (Amaranthus retroflexus); assay: Test A preemergence, pigweed; conditions: for Plant response rating, Pigweed: 0 to 100 scale (0 no effect, 100 complete control)
Procedure, shortened: (§2)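 Preemergence: seeded pots of loam plus sand received a directed soil spray. Postemergence: seedlings at one to two leaves, 2 to 10 cm high, were oversprayed. Each compound was formulated in a non-phytotoxic solvent mix that included a surfactant.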

[8] = test system: pigweed (Amaranthus retroflexus); assay: Test A postemergence, pigweed; conditions: Postemergence, 0 to 100 scale (0 no effect, 100 complete control); for Plant response rating, Pigweed: 125 g ai/ha; for Pigweed plant response rating: 500 g ai/ha, visual injury vs untreated controls after approx. 10 days
Procedure, shortened: as §1

[9] = test system: galium (catchweed bedstraw, Galium aparine); assay: Test A postemergence, galium; conditions: Postemergence, 0 to 100 scale (0 no effect, 100 complete control); for Plant response rating, Galium: 125 g ai/ha; for Galium plant response rating: 500 g ai/ha, visual injury vs untreated controls after approx. 10 days
Procedure, shortened: as §2

[10] = test system: wheat (Triticum aestivum); assay: Test A postemergence, wheat; conditions: Postemergence, 0 to 100 scale (0 no effect, 100 complete control); for Plant response rating, Wheat: 125 g ai/ha; for Wheat plant response rating: 500 g ai/ha, visual injury vs untreated controls after approx. 10 days
Procedure, shortened: as §2

[11] = test system: Ryegrass, Italian (Italian ryegrass, Lolium multiflorum); assay: Test A postemergence, Ryegrass, Italian; conditions: Postemergence, 0 to 100 scale (0 no effect, 100 complete control); for Plant response rating, Ryegrass, Italian: 125 g ai/ha; for Ryegrass, Italian plant response rating: 500 g ai/ha, visual injury vs untreated controls after approx. 10 days
Procedure, shortened: as §1

[12] = test system: blackgrass (Alopecurus myosuroides); assay: Test A postemergence, blackgrass; conditions: Postemergence, 0 to 100 scale (0 no effect, 100 complete control); for Plant response rating, Blackgrass: 125 g ai/ha; for Blackgrass plant response rating: 500 g ai/ha, visual injury vs untreated controls after approx. 10 days
Procedure, shortened: as §1

[13] = test system: Foxtail, Giant (giant foxtail, Setaria faberi); assay: Test A postemergence, Foxtail, Giant; conditions: Postemergence, 0 to 100 scale (0 no effect, 100 complete control); for Plant response rating, Foxtail, Giant: 125 g ai/ha; for Foxtail, Giant plant response rating: 500 g ai/ha, visual injury vs untreated controls after approx. 10 days
Procedure, shortened: as §1

[14] = test system: Ryegrass, Italian (Italian ryegrass, Lolium multiflorum); assay: Test A preemergence, Ryegrass, Italian; conditions: Preemergence; for Plant response rating, Ryegrass, Italian: 0 to 100 scale (0 no effect, 100 complete control)
Procedure, shortened: as §1

[15] = test system: barnyardgrass (Echinochloa crus-galli); assay: Test A postemergence, barnyardgrass; conditions: Postemergence, 0 to 100 scale (0 no effect, 100 complete control); for Plant response rating, Barnyardgrass: 125 g ai/ha; for Barnyardgrass plant response rating: 500 g ai/ha, visual injury vs untreated controls after approx. 10 days
Procedure, shortened: as §2

[16] = test system: kochia (Bassia scoparia); assay: Test A preemergence, kochia; conditions: Preemergence; for Plant response rating, Kochia: 0 to 100 scale (0 no effect, 100 complete control)
Procedure, shortened: as §1

[17] = 125 g ai/ha, visual injury, approx. 10 days
[18] = 500 g ai/ha, visual injury on 0 to 100 scale (0 no effect, 100 complete control), approximately 10 days

SMILES	Plant response rating, Foxtail, Giant [1, 17]	Plant response rating, Kochia [2]	Kochia plant response rating [2]	Plant response rating, Corn [3]	Corn plant response rating [3]	Plant response rating, Ragweed [4, 17]	Plant response rating, Ragweed [5]	Ragweed plant response rating [5]	Plant response rating, Barnyardgrass ([6]; 500 g ai/ha)	Plant response rating, Pigweed [7, 17]	Plant response rating, Pigweed [8]	Pigweed plant response rating [8]	Plant response rating, Galium [9]	Galium plant response rating [9]	Plant response rating, Wheat [10]	Wheat plant response rating [10]	Plant response rating, Ryegrass, Italian [11]	Ryegrass, Italian plant response rating [11]	Plant response rating, Blackgrass [12]	Blackgrass plant response rating [12]	further results
Cc1cc(Cl)c(NS(=O)(=O)C(F)(F)F)cc1C1=NOC2(CCCCC2)C1 [Compound 221]	100	60	70	10	40	90	70	90	100	60	20	80	80	100	20	70	0	60	10	30	Plant response rating, Foxtail, Giant ([1]; 500 g ai/ha): 100; Plant response rating, Ragweed ([4]; 500 g ai/ha): 90; Plant response rating, Barnyardgrass [6, 17]: 100; Plant response rating, Pigweed ([7]; 500 g ai/ha): 100; Plant response rating, Foxtail, Giant [13]: 0; Foxtail, Giant plant response rating [13]: 90; Plant response rating, Ryegrass, Italian [14, 17]: 100; Plant response rating, Ryegrass, Italian ([14]; 500 g ai/ha): 100; Plant response rating, Barnyardgrass [15]: 30; Barnyardgrass plant response rating [15]: 80; Plant response rating, Kochia [16, 17]: 70; Plant response rating, Kochia ([16]; 500 g ai/ha): 90
Cc1cc(Cl)c(N(S(=O)(=O)C(F)(F)F)S(=O)(=O)C(F)(F)F)cc1C1=NOC(C)(C)C1 [Compound 222]	40	10	50	0	0	60	50	90	90	50	20	40	90	90	0	70	0	0	20	20	Plant response rating, Foxtail, Giant ([1]; 500 g ai/ha): 50; Plant response rating, Ragweed ([4]; 500 g ai/ha): 90; Plant response rating, Pigweed ([7]; 500 g ai/ha): 100; Plant response rating, Foxtail, Giant [13]: 0; Foxtail, Giant plant response rating [13]: 10; Plant response rating, Ryegrass, Italian [14, 17]: 30; Plant response rating, Ryegrass, Italian ([14]; 500 g ai/ha): 80; Plant response rating, Barnyardgrass [15]: 10; Barnyardgrass plant response rating [15]: 70; Plant response rating, Kochia [16, 17]: 0; Plant response rating, Kochia ([16]; 500 g ai/ha): 40
Cc1cc(C)c(C(=O)N2CCC3(CCCC3)CC2)cc1NS(=O)(=O)C(F)(F)F [Compound 223]	60	0	0	0	0	0	0	20	50	10	40	30	40	40	0	0	0	0	20	0	Plant response rating, Foxtail, Giant ([1]; 500 g ai/ha): 100; Plant response rating, Ragweed ([4]; 500 g ai/ha): 50; Plant response rating, Barnyardgrass [6, 17]: 30; Plant response rating, Pigweed ([7]; 500 g ai/ha): 90; Plant response rating, Foxtail, Giant [13]: 0; Foxtail, Giant plant response rating [13]: 0; Plant response rating, Ryegrass, Italian [14, 17]: 30; Plant response rating, Ryegrass, Italian ([14]; 500 g ai/ha): 80; Plant response rating, Barnyardgrass [15]: 10; Barnyardgrass plant response rating [15]: 20; Plant response rating, Kochia [16, 17]: 0; Plant response rating, Kochia ([16]; 500 g ai/ha): 20
Cc1cc(C)c(C(=O)N2CCC3(CCCC3)C2)cc1NS(=O)(=O)C(F)(F)F [Compound 225]	90	0	10	0	0	30	20	40	90	70	90	30	50	80	0	0	60	40	0	20	Plant response rating, Foxtail, Giant ([1]; 500 g ai/ha): 100; Plant response rating, Ragweed ([4]; 500 g ai/ha): 90; Plant response rating, Barnyardgrass [6, 17]: 70; Plant response rating, Pigweed ([7]; 500 g ai/ha): 100; Plant response rating, Foxtail, Giant [13]: 0; Foxtail, Giant plant response rating [13]: 0; Plant response rating, Ryegrass, Italian [14, 17]: 70; Plant response rating, Ryegrass, Italian ([14]; 500 g ai/ha): 100; Plant response rating, Barnyardgrass [15]: 0; Barnyardgrass plant response rating [15]: 10; Plant response rating, Kochia [16, 17]: 0; Plant response rating, Kochia ([16]; 500 g ai/ha): 40
Cc1cc(C)c(C(=O)N2CCC(S(C)(=O)=O)CC2)cc1NS(=O)(=O)C(F)(F)F [Compound 233]	40	0	30	0	0	0	0	0	30	60	30	60	80	90	0	40	0	0	0	40	Foxtail, Giant plant response rating [1, 18]: 100; Ragweed plant response rating [4, 18]: 30; Plant response rating, Barnyardgrass [6, 17]: 0; Pigweed plant response rating [7, 18]: 90; Plant response rating, Foxtail, Giant [13]: 0; Foxtail, Giant plant response rating [13]: 0; Plant response rating, Ryegrass, Italian [14, 17]: 20; Ryegrass, Italian plant response rating [14, 18]: 70; Plant response rating, Barnyardgrass [15]: 0; Barnyardgrass plant response rating [15]: 0; Plant response rating, Kochia [16, 17]: 0; Kochia plant response rating [16, 18]: 80
